The results in this text go back to patent publication US7598028B2, “Compositions and methods for detecting and treating prostate disorders” (The Regents of the University of Michigan, priority 2006, dated 2009).

Assay [1] relates to N15C6 prostate epithelial cells. Nature of the assay: Proliferation assay (cell counts), N15C6. It is filed as cell-based, human. The protocol:
Proliferation assays. Cellular proliferation was assessed after plating cells at 50 000 cell/well in triplicate in six-well plates and counting cells after 24 and 96 h of incubation in complete media, serum-free media or serum-free prostate stromal fibroblast conditioned media, as described previously (Macoska J A, et al., (2004) Cancer Genet. Cytogenet. 154, 36-43; incorporated herein by reference in its entirety). Averages and standard deviations of cell number were calculated for each time point under each media condition. To assess the effects of exogenous CXCL12 on cellular proliferation, recombinant human SDF1 alpha/CXCL12 (R & D Systems, 350-NS) was added at the desired concentration in 1 mL SF HIE (or 1 mL SF HIE alone for control) to each well. The cells were counted at 24 and 96 h growth and re-fed at 48 and 72 h growth. Cell counts were normalized to 50 000 cells at 24 h to account for any plating discrepancies.
Proliferation Assays. Cellular proliferation was assessed after plating cells at 50,000 cell/well in triplicate in six well plates and counting cells after 24 and 96 hours of incubation as described previously (see, e.g., Macoska J A, et al., 2004 Cancer Genet. Cytogenet. 154, 36-43; incorporated herein by reference in its entirety). To assess the effects of exogenous CXCL12 on cellular proliferation, recombinant human SDF1 alpha/CXCL12 (R&D Systems, 350-NS) was added at the desired concentration in 1 ml SF HIE (or 1 ml SF HIE alone for control) to each well. The cells were re-fed at 48 and 72 hours growth and counted at 24 and 96 hours growth. Cell counts were normalized to 50,000 cells at 24 hours to account for any plating discrepancies. Averages and standard deviations of cell number were calculated for each time point under each media condition. Experiments utilizing U0126 were performed as above, except that cells were treated after plating for 2 hours with either DMSO (vehicle) or 5 uM U0126 before addition of CXCL12. Cells were maintained in media containing DMSO or U0126 for the entirety of the experiment. For the antibody blockade experiments, cells were plated at 10,000 cells per well in triplicate in 24 well dishes and pre-incubated with mouse IgG2aκ (BD Pharmingen 555571) or mouse anti-CXCR4 (BD Pharmingen 555971) at 1 ug/ml for 1 hour prior to CXCL12 addition. Cells were maintained in media containing appropriate antibodies for the entirety of the experiment, and cells were counted at 24 and 96 hours as above.
Proliferation Assays. Cellular proliferation was assessed after plating cells at 50,000 cell/well in triplicate in six well plates and counting cells after 24 and 96 hours of incubation as described previously (see, e.g., Begley L, et al., Genes Chromosomes Cancer. 2006 February; 45(2): 136-46; herein incorporated by reference in its entirety). To assess the effects of exogenous CXCL5 on cellular proliferation, recombinant human CXCL5 (R&D Systems, 254-X) was added at the desired concentration in 2 ml SF media (or 2 ml SF media alone for control) to each well. The cells were re-fed at 24 hours growth and counted at 24 and 96 hours growth. Cell counts were normalized to 50,000 cells at 24 hours to account for any plating discrepancies. Averages and standard deviations of cell number were calculated for each time point under each media condition. For the antibody blockade experiments, 10,000 cells per well were plated in triplicate in 24 well dishes and preincubated with mouse anti-human CXCR2 (Biosource AHR1532X) or mouse antihuman CXCR4 (BD Pharmingen 555971) at 1 ug/ml for 1 hour prior to CXCL5 addition. Cells were maintained in media containing appropriate antibodies for the entirety of the experiment and were counted at 24 and 96 hours as above.

The test system of the next assay is ERK ½. Briefly: Western blot, ERK phosphorylation in N15C6 cells. The assay is classed as cell-based, human. As for the experimental part:
Western blot analysis Cells were lysed, proteins resolved by electrophoresis and electroblotting was carried out as described previously (Chaib H, et al., (2001) Cancer Res. 61, 2390-2394; incorporated herein by reference in its entirety). Proteins were detected using antibodies against phospho-ERK½ (Cell Signaling no. 9101), total ERK½ (Cell Signaling, no. 9102), CXCR4 (Abcam no. ab2074), CXCR7 (Abcam #Ab12870, Abcam #Ab12871, Abcam #38089), phospho-p65 (Rockland no. 100-401-264), total p65 (Rockland no. 100-4165), or beta-actin (Santa Cruz no. sc-1615), in conjunction with an ECL detection system.
Western Blot Analysis. Cells were lysed, proteins resolved by electrophoresis, and electroblotting was carried out as described previously (see, e.g.; Chaib H, et al., 2001 Cancer Res. 61, 2390-2394; incorporated herein by reference in its entirety). Proteins were detected using antibodies against phospho-ERK½ (Cell Signaling #9101), total ERK½ (Cell Signaling #9102), CXCR4 (Abcam #ab2074), Elk-1 (Cell Signaling #9182), Phospho Elk-1 (Cell Signaling #9181), or beta-actin (Santa Cruz #sc-1615), in conjunction with an ECL detection system.
Western Blot and Protein Analysis. Cells were lysed, proteins resolved by electrophoresis, and electroblotting was carried out as described previously except that 20 ug protein was electrophoresed per gel lane for N15C6 cells and 100 ug protein for LNCaP cells (see, e.g., Begley L, et al., Aging Cell. 2005 December; 4(6):291-8; Begley L A, et al., J Biol. Chem. 2007 Sep. 14; 282(37):26767-74; each herein incorporated by reference in their entireties). Proteins were detected using antibodies against phospho-ERK½ (Cell Signaling #9101), total ERK½ (Cell Signaling, #9102), phospho-p65, (Rockland #100-401-264), total p65 (Rockland #100-4165), STAT3 (9139), phospho-STAT3 (9138), beta-actin (Santa Cruz #sc-1615), or tubulin (Upstate, #DM1A) in conjunction with an ECL detection system. Secondary antibodies included goat anti-rabbit (Cell Signaling, #7074) and goat anti-mouse (Santa Cruz, #SC-2005), and both were used at a 1:5000 concentration. Immunoblots shown are representative of triplicate experiments. Densitometric quantitation of immunoblot films was accomplished by scanning the original films and converting the .tiff files to grayscale. Images were inverted, and mean band intensities were measured using ImageJ (www, followed by, .nih.gov). The mean intensity of adjacent background was also measured for each band and subtracted from band intensity.
On the technique in general: A western blot detects proteins with antibodies after separation by electrophoresis.

For `N#CC(=C(/N)Sc1ccccc1N)/C(C#N)=C(\N)Sc1ccccc1N` [U0126], the “effect on proliferative response to CXCL12” value in assay [1] (1.0 uM U0126 with 1 pM, 10 pM or 100 pM CXCL12, compared to DMSO) was “nearly ablated”; in assay [1] (5.0 uM U0126 in 0.05% DMSO), “nearly ablated”. In addition, the “effect of U0126 on the effect of CXCL5 (anticipated)” value in assay [1] (stated as anticipated) is recorded as “will inhibit”. Besides, the “cellular proliferation in the absence of CXCL12” value in assay [1] (treatment with U0126) is listed as “diminished”. The “effect on CXCL12-stimulated ERK ½ phosphorylation” value in the assay on ERK ½ (0.1 uM or 1.0 uM U0126, 1 pM CXCL12) is recorded as “diminished”; in the assay on ERK ½ (1 uM U0126 pre-treatment, 10 pM or 1000 pM CXCL12), “reduces”; in the assay on ERK ½ (5 uM U0126 pre-treatment, 10 pM or 1000 pM CXCL12) it was “ablates”. In the assay with ERK ½ (1.0 uM or 5.0 uM U0126, 1 pM, 10 pM or 1000 pM CXCL12), the “effect on CXCL12-stimulated ERK phosphorylation” value is given as “greatly diminishes”.
Regarding “CXCL5: recombinant human CXCL5 (R&D Systems, 254-X), CXC-type chemokine”, in assay [1], the “CXCL5 concentrations that inhibited proliferation” value is greater than 100 µM and the “CXCL5 concentrations that stimulated proliferation” value is 1 to 10 pM. For the same compound, the “proliferation versus SF media alone” value in assay [1] (0.001-1 nM CXCL5, p<0.05) is listed as “significantly higher”. In addition, the “proliferation in response to CXCL5 compared with CXCL12” value in assay [1] (FIG. 8) is recorded as “equivalently”. Also, in assay [1] (add back of exogenous chemokine, 96 hours), the “cell proliferation compared to serum-free (SF HIE) media alone” value was “stimulate”. Further, in the assay with ERK ½ (10 pM, 100 pM or 1 nM CXCL5), the “ERK ½ phosphorylation” value was “rapidly and transiently phosphorylated”.
